Literature values, collected in patent publication US20230131859A1, “BIOCONVERSION OF OLEUROPEIN” (SOCIETE DES PROUITS NESTLES S.A., priority 2017, published 2023).

What was measured:
[1] = in vivo
[2] = compared with hydroxytyrosol

Compound	clearance from the plasma [1]	solubility in the lipophilic phases [2]
CC=C1C(O)OC=C(C(=O)OC)C1CC(=O)OCCc1ccc(O)c(O)c1 (centres unmarked) [oleuropein aglycone, 3,4-dihydroxyphenylethanol-elenolic acid]	slower clearance from the plasma compared with hydroxytyrosol and oleuropein	–
hydroxytyrosol acetate	–	more soluble in the lipophilic phases than hydroxytyrosol
